Assay results as given in US6737383B1, “Herbicidal oxadiazolidines” (priority 1999, dated 2004).

Experiments:
purple nutsedge = assay: Test B pre/postemergence purple nutsedge; format: in vivo, Cyperus rotundus; settings: for Plant response rating, Nutsedge: scale of 0 to 10 where 0 is no effect and 10 is complete control
In short: (§1)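 Test chemicals in a non-phytotoxic solvent mixture with surfactant were sprayed preemergence onto planted seeds and postemergence onto plants 2 to 18 cm tall (1- to 4-leaf stage). After twelve to sixteen days in a greenhouse, injury was visually rated against untreated controls from 0 (no effect) to 10 (complete control).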

corn = assay: Test B pre/postemergence corn; format: in vivo, Zea mays
In short: as §1

blackgrass = assay: Test B pre/postemergence blackgrass; format: in vivo, Alopecurus myosuroides
In short: as §1

cocklebur = assay: Test B pre/postemergence cocklebur; format: in vivo, Xanthium strumarium
In short: as §1

crabgrass = assay: Test B pre/postemergence crabgrass; format: in vivo, Digitaria sanguinalis
In short: as §1

rape = assay: Test B pre/postemergence rape; format: in vivo, Brassica napus; settings: for Plant response rating, Rape: scale of 0 to 10 where 0 is no effect and 10 is complete control
In short: as §1

duck salad = assay: Test B flood test duck salad; format: in vivo, Heteranthera limosa
In short: (§2)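 Read-out is a visual response score from 0 (no effect) to 10 (complete control), assigned by comparison with untreated controls. Treatment was applied at the 2-leaf stage, and plants stayed in the greenhouse for twelve to sixteen days before scoring.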

sugar beet = assay: Test B pre/postemergence sugar beet; format: in vivo, Beta vulgaris; settings: for Plant response rating, Sugarbeets: scale of 0 to 10 where 0 is no effect and 10 is complete control
In short: as §1

wheat = assay: Test B pre/postemergence wheat; format: in vivo, Triticum aestivum; settings: for Plant response rating, Wheat: scale of 0 to 10 where 0 is no effect and 10 is complete control
In short: as §1

surinam grass = assay: Test B pre/postemergence surinam grass; format: in vivo, Brachiaria decumbens
In short: as §1

pigweed = assay: Test B pre/postemergence pigweed; format: in vivo, Amaranthus retroflexus; settings: for Plant response rating, Redroot pigweed: scale of 0 to 10 where 0 is no effect and 10 is complete control
In short: as §1

wild oat = assay: Test B pre/postemergence wild oat; format: in vivo, Avena fatua; settings: for Plant response rating, Wild oats: scale of 0 to 10 where 0 is no effect and 10 is complete control
In short: as §1

rice = assay: Test B flood test rice; format: in vivo, Oryza sativa
In short: as §2

giant foxtail = assay: Test B pre/postemergence giant foxtail; format: in vivo, Setaria faberii
In short: as §1

velvetleaf = assay: Test B pre/postemergence velvetleaf; format: in vivo, Abutilon theophrasti; settings: for Plant response rating, Velvetleaf: scale of 0 to 10 where 0 is no effect and 10 is complete control
In short: as §1

bamyardgrass = assay: Test B flood test barnyardgrass; format: in vivo, Echinochloa crus-galli
In short: as §2

morningglory = assay: Test B pre/postemergence morningglory; format: in vivo, Ipomoea hederacea; settings: for Plant response rating, Morningglory: scale of 0 to 10 where 0 is no effect and 10 is complete control
In short: as §1

smallflower flatsedge = assay: Test B flood test smallflower flatsedge; format: in vivo, Cyperus difformis
In short: as §2

soybean = assay: Test B pre/postemergence soybean; format: in vivo, Glycine max; settings: for Plant response rating, Soybean: scale of 0 to 10 where 0 is no effect and 10 is complete control
In short: as §1

[1] = Postemergence, Rate 250 g/ha, scale 0 to 10
[2] = Preemergence, Rate 250 g/ha, scale 0 to 10, 0 is no effect, 10 is complete control
[3] = Preemergence, Rate 500 g/ha, scale 0 to 10, 0 is no effect, 10 is complete control
[4] = Rate 62 g/ha, Postemergence, scale 0 to 10 (0 no effect, 10 complete control)
[5] = Rate 125 g/ha, Postemergence, scale 0 to 10, 0 is no effect, 10 is complete control
[6] = Postemergence, Rate 500 g/ha, scale of 0 to 10 where 0 is no effect and 10 is complete control
[7] = Preemergence, Rate 62 g/ha, scale of 0 to 10 where 0 is no effect and 10 is complete control
[8] = Preemergence, Rate 125 g/ha, scale of 0 to 10 where 0 is no effect and 10 is complete control
[9] = Rate 62 g/ha, flood test species, Pre-emergence, visual evaluation after twelve to sixteen days
[10] = Rate 125 g/ha, under heading Pre-emergence, flood test species, visual evaluation after twelve to sixteen days
[11] = Rate 250 g/ha, Pre-emergence (flood test species), scale 0 to 10, 0 is no effect, 10 is complete control
[12] = Rate 500 g/ha, Pre-emergence, flood test species, scale 0 to 10 (0 no effect, 10 complete control)

Compound: COC(CCl)n1c(=O)on(C(=O)N(c2ccc(Cl)cc2)C(C)C)c1=O (stereo not shown) [Compound 458]
- Nutsedge plant response rating (purple nutsedge; [1]): 0
- Plant response rating, Nutsedge (purple nutsedge; Preemergence, Rate 62 g/ha): 0
- Plant response rating, Nutsedge (purple nutsedge; Preemergence, Rate 125 g/ha): 0
- Nutsedge plant response rating (purple nutsedge; [2]): 0
- Nutsedge plant response rating (purple nutsedge; [3]): 0
- Nutsedge plant response rating (purple nutsedge; [4]): 0
- Nutsedge plant response rating (purple nutsedge; [5]): 0
- Corn plant response rating (corn; [1]): 2
- Corn plant response rating (corn; [6]): 2
- Plant response rating, Corn (corn; [7]): 0
- Plant response rating, Corn (corn; [8]): 0
- Corn plant response rating (corn; [2]): 0
- Corn plant response rating (corn; [3]): 3
- Corn plant response rating (corn; [4]): 0
- Corn plant response rating (corn; [5]): 0
- Blackgrass plant response rating (blackgrass; [1]): 8
- Blackgrass plant response rating (blackgrass; [6]): 8
- Plant response rating, Blackgrass (blackgrass; [7]): 6
- Plant response rating, Blackgrass (blackgrass; [8]): 8
- Blackgrass plant response rating (blackgrass; [2]): 8
- Blackgrass plant response rating (blackgrass; [3]): 9
- Blackgrass plant response rating (blackgrass; [4]): 0
- Blackgrass plant response rating (blackgrass; [5]): 3
- Cocklebur plant response rating (cocklebur; [1]): 0
- Cocklebur plant response rating (cocklebur; [6]): 2
- Plant response rating, Cocklebur (cocklebur; [7]): 0
- Plant response rating, Cocklebur (cocklebur; [8]): 0
- Cocklebur plant response rating (cocklebur; [2]): 0
- Cocklebur plant response rating (cocklebur; [3]): 0
- Cocklebur plant response rating (cocklebur; [4]): 0
- Cocklebur plant response rating (cocklebur; [5]): 0
- Crabgrass plant response rating (crabgrass; [1]): 8
- Crabgrass plant response rating (crabgrass; [6]): 9
- Plant response rating, Crabgrass (crabgrass; [7]): 6
- Plant response rating, Crabgrass (crabgrass; [8]): 6
- Crabgrass plant response rating (crabgrass; [2]): 9
- Crabgrass plant response rating (crabgrass; [3]): 10
- Crabgrass plant response rating (crabgrass; [4]): 2
- Crabgrass plant response rating (crabgrass; [5]): 8
- Rape plant response rating (rape; [1]): 0
- Plant response rating, Rape (rape; Preemergence, Rate 62 g/ha): 0
- Plant response rating, Rape (rape; Preemergence, Rate 125 g/ha): 0
- Rape plant response rating (rape; [2]): 3
- Rape plant response rating (rape; [3]): 4
- Rape plant response rating (rape; [4]): 0
- Rape plant response rating (rape; [5]): 0
- Plant response rating, Ducksalad (0 to 10 scale, 0 is no effect, 10 is complete control) (duck salad; [9]): 0
- Ducksalad plant response rating (0 to 10 scale, 0 is no effect, 10 is complete control) (duck salad; [10]): 0
- Ducksalad plant response rating (duck salad; [11]): 0
- Ducksalad plant response rating (duck salad; [12]): 0
- Sugarbeets plant response rating (sugar beet; [1]): 0
- Plant response rating, Sugarbeets (sugar beet; Preemergence, Rate 62 g/ha): 0
- Plant response rating, Sugarbeets (sugar beet; Preemergence, Rate 125 g/ha): 0
- Sugarbeets plant response rating (sugar beet; [2]): 2
- Sugarbeets plant response rating (sugar beet; [3]): 8
- Sugarbeets plant response rating (sugar beet; [4]): 0
- Sugarbeets plant response rating (sugar beet; [5]): 0
- Wheat plant response rating (wheat; [1]): 2
- Plant response rating, Wheat (wheat; Preemergence, Rate 62 g/ha): 0
- Plant response rating, Wheat (wheat; Preemergence, Rate 125 g/ha): 0
- Wheat plant response rating (wheat; [2]): 0
- Wheat plant response rating (wheat; [3]): 2
- Wheat plant response rating (wheat; [4]): 0
- Wheat plant response rating (wheat; [5]): 0
- B. signalgrass plant response rating (surinam grass; Postemergence, Rate 250 g/ha, scale 0 to 10, 0 no effect, 10 complete control): 0
- B. signalgrass plant response rating (surinam grass; [6]): 3
- Plant response rating, B. signalgrass (surinam grass; [7]): 4
- Plant response rating, B. signalgrass (surinam grass; [8]): 4
- B. signalgrass plant response rating (surinam grass; [2]): 4
- B. signalgrass plant response rating (surinam grass; [3]): 4
- B. signalgrass plant response rating (surinam grass; [4]): 0
- B. signalgrass plant response rating (surinam grass; [5]): 0
- Redroot pigweed plant response rating (pigweed; [1]): 0
- Plant response rating, Redroot pigweed (pigweed; Preemergence, Rate 62 g/ha): 0
- Plant response rating, Redroot pigweed (pigweed; Preemergence, Rate 125 g/ha): 3
- Redroot pigweed plant response rating (pigweed; [2]): 6
- Redroot pigweed plant response rating (pigweed; [3]): 8
- Redroot pigweed plant response rating (pigweed; [4]): 0
- Redroot pigweed plant response rating (pigweed; [5]): 0
- Wild oats plant response rating (wild oat; [1]): 2
- Plant response rating, Wild oats (wild oat; Preemergence, Rate 62 g/ha): 0
- Plant response rating, Wild oats (wild oat; Preemergence, Rate 125 g/ha): 2
- Wild oats plant response rating (wild oat; [2]): 3
- Wild oats plant response rating (wild oat; [3]): 10
- Wild oats plant response rating (wild oat; [4]): 0
- Wild oats plant response rating (wild oat; [5]): 0
- Plant response rating, Rice (0 to 10 scale, 0 is no effect, 10 is complete control) (rice; [9]): 0
- Rice plant response rating (0 to 10 scale, 0 is no effect, 10 is complete control) (rice; [10]): 0
- Rice plant response rating (rice; [11]): 0
- Rice plant response rating (rice; [12]): 0
- Giant foxtail plant response rating (giant foxtail; [1]): 9
- Giant foxtail plant response rating (giant foxtail; [6]): 9
- Plant response rating, Giant foxtail (giant foxtail; [7]): 9
- Plant response rating, Giant foxtail (giant foxtail; [8]): 9
- Giant foxtail plant response rating (giant foxtail; [2]): 10
- Giant foxtail plant response rating (giant foxtail; [3]): 10
- Giant foxtail plant response rating (giant foxtail; [4]): 7
- Giant foxtail plant response rating (giant foxtail; [5]): 9
- Velvetleaf plant response rating (velvetleaf; [1]): 0
- Plant response rating, Velvetleaf (velvetleaf; Preemergence, Rate 62 g/ha): 0
- Plant response rating, Velvetleaf (velvetleaf; Preemergence, Rate 125 g/ha): 0
- Velvetleaf plant response rating (velvetleaf; [2]): 2
- Velvetleaf plant response rating (velvetleaf; [3]): 6
- Velvetleaf plant response rating (velvetleaf; [4]): 0
- Velvetleaf plant response rating (velvetleaf; [5]): 0
- Plant response rating, Barnyardgrass (0 to 10 scale, 0 is no effect, 10 is complete control) (bamyardgrass; [9]): 0
- Barnyardgrass plant response rating (0 to 10 scale, 0 is no effect, 10 is complete control) (bamyardgrass; [10]): 0
- Barnyardgrass plant response rating (bamyardgrass; [11]): 0
- Barnyardgrass plant response rating (bamyardgrass; [12]): 0
- Morningglory plant response rating (morningglory; [1]): 3
- Plant response rating, Morningglory (morningglory; Preemergence, Rate 62 g/ha): 0
- Plant response rating, Morningglory (morningglory; Preemergence, Rate 125 g/ha): 0
- Morningglory plant response rating (morningglory; [2]): 0
- Morningglory plant response rating (morningglory; [3]): 0
- Morningglory plant response rating (morningglory; [4]): 0
- Morningglory plant response rating (morningglory; [5]): 0
- Plant response rating, S. Flatsedge (0 to 10 scale, 0 is no effect, 10 is complete control) (smallflower flatsedge; [9]): 0
- S. Flatsedge plant response rating (0 to 10 scale, 0 is no effect, 10 is complete control) (smallflower flatsedge; [10]): 0
- S. Flatsedge plant response rating (smallflower flatsedge; [11]): 0
- S. Flatsedge plant response rating (smallflower flatsedge; [12]): 0
- Soybean plant response rating (soybean; [1]): 2
- Plant response rating, Soybean (soybean; Preemergence, Rate 62 g/ha): 0
- Plant response rating, Soybean (soybean; Preemergence, Rate 125 g/ha): 0
- Soybean plant response rating (soybean; [2]): 0
- Soybean plant response rating (soybean; [3]): 2
- Soybean plant response rating (soybean; [4]): 0
- Soybean plant response rating (soybean; [5]): 1
